Where a name gives a salt, the structure may show the parent alone.

The assay deals with T1, full-length USP7 (Homo sapiens, UniProt Q93009).
T1 construct: A 45 μl reaction volume containing full-length USP7 (0.5-1.0 nM)
T1 sequence (Q93009 whole entry): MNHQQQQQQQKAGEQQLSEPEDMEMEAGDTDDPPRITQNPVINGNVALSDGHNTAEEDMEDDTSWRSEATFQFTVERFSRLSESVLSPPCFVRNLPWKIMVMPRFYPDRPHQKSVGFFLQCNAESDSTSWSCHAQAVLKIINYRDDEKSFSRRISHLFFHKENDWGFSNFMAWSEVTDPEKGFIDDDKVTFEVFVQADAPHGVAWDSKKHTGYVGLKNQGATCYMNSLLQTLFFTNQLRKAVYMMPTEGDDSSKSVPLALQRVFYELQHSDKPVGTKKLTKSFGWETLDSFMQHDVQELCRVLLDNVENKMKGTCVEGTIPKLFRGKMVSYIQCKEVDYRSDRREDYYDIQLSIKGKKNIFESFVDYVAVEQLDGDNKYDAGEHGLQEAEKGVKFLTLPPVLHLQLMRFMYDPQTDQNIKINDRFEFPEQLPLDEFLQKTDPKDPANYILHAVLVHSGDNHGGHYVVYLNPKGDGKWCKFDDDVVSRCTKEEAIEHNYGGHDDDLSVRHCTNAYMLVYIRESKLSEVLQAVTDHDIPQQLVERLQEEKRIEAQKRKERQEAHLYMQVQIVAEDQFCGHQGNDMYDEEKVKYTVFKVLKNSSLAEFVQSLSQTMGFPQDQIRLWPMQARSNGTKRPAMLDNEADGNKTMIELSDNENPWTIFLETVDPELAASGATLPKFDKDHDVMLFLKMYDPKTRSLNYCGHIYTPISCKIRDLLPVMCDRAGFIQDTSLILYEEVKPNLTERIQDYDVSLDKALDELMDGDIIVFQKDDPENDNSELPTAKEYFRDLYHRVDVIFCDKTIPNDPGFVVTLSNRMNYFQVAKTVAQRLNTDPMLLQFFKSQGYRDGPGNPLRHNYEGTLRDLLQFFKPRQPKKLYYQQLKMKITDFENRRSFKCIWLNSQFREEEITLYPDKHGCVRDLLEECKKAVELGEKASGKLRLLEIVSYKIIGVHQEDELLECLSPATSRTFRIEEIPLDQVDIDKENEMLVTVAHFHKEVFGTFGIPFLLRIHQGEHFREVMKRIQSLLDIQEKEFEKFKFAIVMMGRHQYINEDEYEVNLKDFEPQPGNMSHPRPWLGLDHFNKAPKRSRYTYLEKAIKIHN
The experiment in a line: Enzymatic assay to determine % inhibition of USP7 activity at 1 μM test compound (Ubiquitin-Rhodamine 110 cleavage). It counts as biochemical. To be noted: 1 μM of the test compound; given where IC50 has not been determined yet; mean of two repetitions. As to the method:
Enzymatic Assay to Determine % Value of Inhibition […] Activity at 1 μM […]
A 45 μl reaction volume containing full-length USP7 (0.5-1.0 nM) in 50 mM HEPES pH 7.5, 150 mM NaCl, 2 mM DTT, 1 mg/ml BSA and 0.05% Tween20 (DUB assay buffer) was assembled in wells of 96 well half area black flat bottom plates. All test compounds were first dissolved to 30 mM stocks in DMSO and subsequently introduced to enzyme 15 min after USP7 incubation with DTT at room temperature. The final concentration of tested compounds was 1 μM. The enzymatic reaction was started by adding 0.5 μM Ubiquitin-Rhodamine 110 (final concentration) and allowed to proceed for 30-60 min at 25° C., 250 RPM shaking before Rhodamine fluorescence (485 nm excitation/535 nm emission) was measured using Tecan Spark M10 plate reader. Percentage of inhibition at 1 μM was determined by the mean of two repetitions for these concentrations using Microsoft Excel software.
`CC1(C)C2C(=O)N(Cc3cc4c(-c5cc(Cl)ccc5N5CCC6(CCCN6)C5)ncnn4c3)C(=O)C21` (centres unmarked) [Example 91, 3-((4-(5-chloro-2-(1,7-diazaspiro[4.4]nonan-7-yl)phenyl)pyrrolo[2,1-f][1,2,4]triazin-6-yl)methyl)-6,6-dimethyl-3-azabicyclo[3.1.0]hexane-2,4-dione hydrochloride] showed an inhibition at 1 µM of 20 to 49%.
For `Cc1nc(C(F)(F)F)cc(-c2ncnn3cc(Cn4c(=O)ccn(C)c4=O)cc23)c1OC1CCCNC1` (centres unmarked) [Example 129, 1-methyl-3-((4-(2-methyl-3-(piperidin-3-yloxy)-6-(trifluoromethyl)pyridin-4-yl)pyrrolo[2,1-f][1,2,4]triazin-6-yl)methyl)pyrimidine-2,4(1H,3H)-dione hydrochloride], the inhibition at 1 µM is less than 20%.
In the case of `Cc1cc(Cl)cc(-c2ncnn3cc(Cn4c(=O)cc[nH]c4=O)cc23)c1CC1CNC[C@H](C)O1` (single isomer, unassigned) [Example 121, dihydrochloride] it was 50 to 70%.
In the case of `Cc1cc(Cl)cc(-c2ncnn3cc(Cn4cc(F)c(=O)n(C)c4=O)cc23)c1C[C@@H]1CNCCO1` (single isomer, unassigned) [Example 98, hydrochloride] it was less than 20%; in that of `COC(=O)c1cc(-c2ncnn3cc(CN4C(=O)C5C(C4=O)C5(C)C)cc23)c2c(ccn2C[C@@H]2CNCCO2)c1` (stereo partly drawn) [Example 34, methyl 7-(6-((6,6-dimethyl-2,4-dioxo-3-azabicyclo[3.1.0]hexan-3-yl)methyl)pyrrolo[2,1-f][1,2,4]triazin-4-yl)-1-(((S)-morpholin-2-yl)methyl)-1H-indole-5-carboxylate 2,2,2-trifluoroacetate], less than 20%.
`Cc1cc(Cl)cc(-c2ncnn3cc(CN4C(=O)C5C(C4=O)C5(C)C)cc23)c1O[C@@H]1CN[C@@H](C)C1` (stereo partly drawn) [Example 20, 3-((4-(5-chloro-3-methyl-2-(((3S,5S)-5-methylpyrrolidin-3-yl)oxy)phenyl)pyrrolo[2,1-f][1,2,4]triazin-6-yl)methyl)-6,6-dimethyl-3-azabicyclo[3.1.0]hexane-2,4-dione hydrochloride]: the inhibition at 1 µM was in the range of 20 to 49%.
The molecule `Cc1cc(Cl)cc(-c2ncnn3cc(CN4C(=O)C5C(C4=O)C5(C)C)cc23)c1OCC1(C)CCCNC1` (single isomer, unassigned) [Example 74, 3-((4-(5-chloro-3-methyl-2-((3-methylpiperidin-3-yl)methoxy)phenyl)pyrrolo[2,1-f][1,2,4]triazin-6-yl)methyl)-6,6-dimethyl-3-azabicyclo[3.1.0]hexane-2,4-dione hydrochloride] showed an inhibition at 1 µM of 50 to 70%.
The value for `Cc1cc(Cl)cc(-c2ncnn3cc(CN4C(=O)C5C(C4=O)C5(C)C)cc23)c1CC1CN[C@H](C)CO1` (stereo partly drawn) [Example 40, 3-((4-(5-chloro-3-methyl-2-(((5R)-5-methylmorpholin-2-yl)methyl)phenyl)pyrrolo[2,1-f][1,2,4]triazin-6-yl)methyl)-6,6-dimethyl-3-azabicyclo[3.1.0]hexane-2,4-dione hydrochloride] was 50 to 70%.
The value for `O=c1cc[nH]c(=O)n1Cc1cc2c(-c3cc(Cl)cc4ccn(CC5(F)CCNCC5)c34)nc(Cl)nn2c1` [Example 123, 3-((2-chloro-4-(5-chloro-1-((4-fluoropiperidin-4-yl)methyl)-1H-indol-7-yl)pyrrolo[2,1-f][1,2,4]triazin-6-yl)methyl)pyrimidine-2,4(1H,3H)-dione hydrochloride] was less than 20%; that for `Cc1cc(Cl)cc(-c2ncnn3cc(CN4C(=O)C5C(C4=O)C5(C)C)cc23)c1NCC1CCCNC1` (centres unmarked) [Example 79, 3-((4-(5-chloro-3-methyl-2-((piperidin-3-ylmethyl)amino)phenyl)pyrrolo[2,1-f][1,2,4]triazin-6-yl)methyl)-6,6-dimethyl-3-azabicyclo[3.1.0]hexane-2,4-dione dihydrochloride] was 50 to 70%.
Regarding `Cc1cc(Cl)cc(-c2ncnn3cc(CN4C(=O)C5C(C4=O)C5(C)C)cc23)c1O[C@@H]1CNCC(F)(F)C1` (stereo partly drawn) [Example 28, 3-((4-(5-chloro-2-(((S)-5,5-difluoropiperidin-3-yl)oxy)-3-methylphenyl)pyrrolo[2,1-f][1,2,4]triazin-6-yl)methyl)-6,6-dimethyl-3-azabicyclo[3.1.0]hexane-2,4-dione 2,2,2-trifluoroacetate], the inhibition at 1 µM is less than 20%.
The value for `CC1(C)C2C(=O)N(Cc3cc4c(-c5cc(Cl)ccc5N5CC[C@@H](N)C5)ncnn4c3)C(=O)C21` (stereo partly drawn) [Example 87, 3-((4-(2-((R)-3-aminopyrrolidin-1-yl)-5-chlorophenyl)pyrrolo[2,1-f][1,2,4]triazin-6-yl)methyl)-6,6-dimethyl-3-azabicyclo[3.1.0]hexane-2,4-dione hydrochloride] was 20 to 49%; that for `CC1(C)C2C(=O)N(Cc3cc4c(-c5cc(C(F)(F)F)cc6ccn(CC7(O)CCNCC7)c56)ncnn4c3)C(=O)C21` (centres unmarked) [Example 19, 3-((4-(1-((4-hydroxypiperidin-4-yl)methyl)-5-(trifluoromethyl)-1H-indol-7-yl)pyrrolo[2,1-f][1,2,4]triazin-6-yl)methyl)-6,6-dimethyl-3-azabicyclo[3.1.0]hexane-2,4-dione hydrochloride] was 50 to 70%; that for `Cc1cc(Cl)cc(-c2ncnn3cc(CO)cc23)c1O[C@H]1CCCNC1` [Example 17, (S)-(4-(5-chloro-3-methyl-2-(piperidin-3-yloxy)phenyl)pyrrolo[2,1-f][1,2,4]triazin-6-yl)methanol hydrochloride] was less than 20%.
The value for `Cc1cc(Cl)cc(-c2ncnn3cc(CN4C(=O)C5C(C4=O)C5(C)C)cc23)c1CC1CNCC(CF)O1` (centres unmarked) [Example 42, 3-((4-(5-chloro-2-((6-(fluoromethyl)morpholin-2-yl)methyl)-3-methylphenyl)pyrrolo[2,1-f][1,2,4]triazin-6-yl)methyl)-6,6-dimethyl-3-azabicyclo[3.1.0]hexane-2,4-dione hydrochloride] was 50 to 70%; that for `O=c1ccn(CC(F)(F)F)c(=O)n1Cc1cc2c(-c3cc(Cl)cc4c3N(C3CCNC3)CCC4)ncnn2c1` (centres unmarked) [Example 64, 3-((4-(6-chloro-1-(pyrrolidin-3-yl)-1,2,3,4-tetrahydroquinolin-8-yl)pyrrolo[2,1-f][1,2,4]triazin-6-yl)methyl)-1-(2,2,2-trifluoroethyl)pyrimidine-2,4(1H,3H)-dione hydrochloride] was more than 70%; that for `CC1(C)C2C(=O)N(Cc3cc4c(-c5cc(Cl)ccc5N5C[C@H]6CCN[C@H]6C5)ncnn4c3)C(=O)C21` (stereo partly drawn) [Example 90, 3-((4-(5-chloro-2-((3aR,6aR)-hexahydropyrrolo[3,4-b]pyrrol-5(1H)-yl)phenyl)pyrrolo[2,1-f][1,2,4]triazin-6-yl)methyl)-6,6-dimethyl-3-azabicyclo[3.1.0]hexane-2,4-dione hydrochloride] was 50 to 70%.
The value for `Cc1cc(Cl)cc(-c2ncnn3cc(CN4C(=O)C5C(C4=O)C5(C)C)cc23)c1CC1CNCC(F)(F)CO1` (centres unmarked) [Example 38, 3-((4-(5-chloro-2-((6,6-difluoro-1,4-oxazepan-2-yl)methyl)-3-methylphenyl)pyrrolo[2,1-f][1,2,4]triazin-6-yl)methyl)-6,6-dimethyl-3-azabicyclo[3.1.0]hexane-2,4-dione hydrochloride] was less than 20%.
Regarding `Cc1cc(Cl)cc(-c2ncnn3cc(CN4C(=O)C5C(C4=O)C5(C)C)c(C)c23)c1O[C@H]1CCCNC1` (stereo partly drawn) [Example 12, 3-((4-(5-chloro-3-methyl-2-(((S)-piperidin-3-yl)oxy)phenyl)-5-methylpyrrolo[2,1-f][1,2,4]triazin-6-yl)methyl)-6,6-dimethyl-3-azabicyclo[3.1.0]hexane-2,4-dione hydrochloride], the inhibition at 1 µM was 50 to 70%.
In the case of `Cn1ccc(=O)n(Cc2cc3c(-c4cc(Cl)cc(F)c4CC4CNCCO4)ncnn3c2)c1=O` (centres unmarked) [Example 116, 3-((4-(5-chloro-3-fluoro-2-(morpholin-2-ylmethyl)phenyl)pyrrolo[2,1-f][1,2,4]triazin-6-yl)methyl)-1-methylpyrimidine-2,4(1H,3H)-dione hydrochloride] it was 50 to 70%.
In the case of `Cc1cc(Cl)cc(-c2ncnn3cc(CN4C(=O)C5C(C4=O)C5(C)C)cc23)c1O[C@@H]1CC[C@@H](C)NC1` (stereo partly drawn) [Example 3, 3-((4-(5-chloro-3-methyl-2-(((3R,6R)-6-methylpiperidin-3-yl)oxy)phenyl)pyrrolo[2,1-f][1,2,4]triazin-6-yl)methyl)-6,6-dimethyl-3-azabicyclo[3.1.0]hexane-2,4-dione hydrochloride] it was 20 to 49%.
In turn, `Cc1cc(Cl)cc(-c2ncnn3cc(CN4C(=O)C5C(C4=O)C5(C)C)cc23)c1CC1CNCC(CF)O1` (single isomer, unassigned) [Example 43, 3-((4-(5-chloro-2-((6-(fluoromethyl)morpholin-2-yl)methyl)-3-methylphenyl)pyrrolo[2,1-f][1,2,4]triazin-6-yl)methyl)-6,6-dimethyl-3-azabicyclo[3.1.0]hexane-2,4-dione hydrochloride] had an inhibition at 1 µM of 20 to 49%.
In the case of `Cc1cc(Cl)cc(-c2ncnn3cc(C(N)=O)cc23)c1O[C@H]1CCCNC1` [Example 18, (S)-4-(5-chloro-3-methyl-2-(piperidin-3-yloxy)phenyl)pyrrolo[2,1-f][1,2,4]triazine-6-carboxamide hydrochloride] it was less than 20%.

The record behind these values is US20240150362A1, “Substituted Pyrrolotriazines” (Molecure S.A., priority 2022, published 2024).
